The subject of one data set is Enterococcus faecalis. The data set is described as follows: Antimicrobial activity against Streptococcus faecalis ATCC 9790 by MTT assay. It counts as functional.
For the next data set, the system named is Staphylococcus aureus. The data set is described as follows: Antimicrobial activity against Staphylococcus aureus ATCC 6538 by MTT assay. It counts as functional. (In general: Formazan colour is commonly taken as a measure of viable cells.)
Data set [1] can be described thus: Toxicity against RBC assessed as hemolysis. It counts as cell-based. As to conditions: erythrocyte.
A further data set concerns Bacillus subtilis. The data set is described as follows: Antimicrobial activity against Bacillus subtilis ATCC 6633 by MTT assay. It is filed as functional.
The subject of the next data set is Enterobacter cloacae. Kind of data set: Antimicrobial activity against Enterobacter cloacae ATCC 13047 by MTT assay. It counts as functional.
Data set [2] has as its target T1, 3-oxoacyl-[acyl-carrier-protein] synthase 3 (Escherichia coli, UniProt C3TDZ2).
T1 sequence (C3TDZ2 whole entry): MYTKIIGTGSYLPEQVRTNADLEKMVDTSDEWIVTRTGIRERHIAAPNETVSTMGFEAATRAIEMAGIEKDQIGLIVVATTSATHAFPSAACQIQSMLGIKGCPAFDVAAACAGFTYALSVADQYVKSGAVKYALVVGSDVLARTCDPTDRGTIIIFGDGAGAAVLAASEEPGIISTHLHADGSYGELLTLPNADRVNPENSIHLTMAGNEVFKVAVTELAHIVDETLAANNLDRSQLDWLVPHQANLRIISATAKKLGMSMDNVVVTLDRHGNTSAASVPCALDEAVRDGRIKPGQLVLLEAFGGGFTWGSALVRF
Kind of data set: Inhibition of Escherichia coli FabH.

The subject of the next data set is Pseudomonas aeruginosa. The data set is described as follows: Antimicrobial activity against Pseudomonas aeruginosa ATCC 13525 by MTT assay. It counts as functional.
The next data set relates to Escherichia coli. The data set is described as follows: Antimicrobial activity against Escherichia coli ATCC 35218 by MTT assay. It is filed as functional.

Values after ≈ are worked out from the molar mass of the structure shown.

As for `COc1ccc(C2=NN(C(C)=O)C(c3ccc(Cl)cc3)C2)cc1` (stereo not drawn), the minimum inhibitory concentration (MIC) in the data set with Enterococcus faecalis is 6.25 µg/mL (≈ 19 µM); against Staphylococcus aureus, 25 µg/mL (≈ 76 µM); against Bacillus subtilis it was 6.25 µg/mL (≈ 19 µM); in the data set on Enterobacter cloacae, 25 µg/mL (≈ 76 µM); in the data set on Pseudomonas aeruginosa it was 25 µg/mL (≈ 76 µM); in the data set on Escherichia coli, 0.78 µg/mL (≈ 2.37 µM). Moreover, the LC30 in data set [1] is over 10000 µg/mL. Besides, it took 7.6 µM to reach half-maximal inhibition in data set [2] (IC50).
As to `CC(=O)N1N=C(c2ccccc2)CC1c1ccccc1Cl` (stereo not drawn), the MIC with Enterococcus faecalis was 25 µg/mL (≈ 83.7 µM); against Staphylococcus aureus, over 50 µg/mL; in the data set on Bacillus subtilis, 25 µg/mL (≈ 83.7 µM); against Enterobacter cloacae, 25 µg/mL (≈ 83.7 µM); in the data set on Pseudomonas aeruginosa, 25 µg/mL (≈ 83.7 µM); in the data set on Escherichia coli, over 50 µg/mL.
Take `COc1cc(OC)cc(C2CC(c3ccc(Cl)cc3)=NN2C(C)=O)c1` (stereo not drawn): the MIC in the data set on Enterococcus faecalis is 50 µg/mL (≈ 139 µM); against Staphylococcus aureus, 6.25 µg/mL (≈ 17.4 µM); in the data set with Bacillus subtilis it was 6.25 µg/mL (≈ 17.4 µM); in the data set on Enterobacter cloacae, over 50 µg/mL; against Pseudomonas aeruginosa, 25 µg/mL (≈ 69.7 µM); with Escherichia coli, 12.5 µg/mL (≈ 34.8 µM).
As to `COc1ccc(C2=NN(C(C)=O)C(c3ccc(OC)cc3)C2)cc1` (stereo not drawn), the MIC is 12.5 µg/mL (≈ 38.5 µM) in the data set with Enterococcus faecalis; 6.25 µg/mL (≈ 19.3 µM) with Staphylococcus aureus; 6.25 µg/mL (≈ 19.3 µM) against Bacillus subtilis; 12.5 µg/mL (≈ 38.5 µM) against Enterobacter cloacae; over 50 µg/mL against Pseudomonas aeruginosa; 3.12 µg/mL (≈ 9.63 µM) against Escherichia coli. The LC30 in data set [1] was over 10000 µg/mL. The compound also registered an IC50 in data set [2] of 19.6 µM.
As to `CC(=O)N1N=C(c2ccccc2F)CC1c1ccc(Br)cc1` (stereo not drawn), the minimal inhibitory concentration (MIC) with Enterococcus faecalis came to 25 µg/mL (≈ 69.2 µM); against Staphylococcus aureus it was 25 µg/mL (≈ 69.2 µM); in the data set on Bacillus subtilis it was 25 µg/mL (≈ 69.2 µM); with Enterobacter cloacae it was 12.5 µg/mL (≈ 34.6 µM); with Pseudomonas aeruginosa, 12.5 µg/mL (≈ 34.6 µM); in the data set on Escherichia coli, 25 µg/mL (≈ 69.2 µM).
Consider `COc1cc(OC)cc(C2CC(c3ccc(Cl)c(Cl)c3)=NN2C(C)=O)c1` (stereo not drawn), for which the minimum inhibitory concentration (MIC) against Enterococcus faecalis was 50 µg/mL (≈ 127 µM); with Staphylococcus aureus, 25 µg/mL (≈ 63.6 µM); in the data set with Bacillus subtilis, 12.5 µg/mL (≈ 31.8 µM); against Enterobacter cloacae it was 12.5 µg/mL (≈ 31.8 µM); with Pseudomonas aeruginosa, 12.5 µg/mL (≈ 31.8 µM); in the data set on Escherichia coli it was over 50 µg/mL.
With `CC(=O)N1N=C(c2ccc(Cl)c(Cl)c2)CC1c1ccc(C)cc1` (stereo not drawn), the minimum inhibitory concentration (MIC) in the data set with Enterococcus faecalis is 12.5 µg/mL (≈ 36 µM); in the data set with Staphylococcus aureus it was over 50 µg/mL; against Bacillus subtilis, 6.25 µg/mL (≈ 18 µM); against Enterobacter cloacae, 25 µg/mL (≈ 72 µM); in the data set with Pseudomonas aeruginosa it was 25 µg/mL (≈ 72 µM); with Escherichia coli it was over 50 µg/mL.
On to `CC(=O)N1N=C(c2ccc(Br)cc2)CC1c1ccccc1Cl` (stereo not drawn), for which the minimal inhibitory concentration (MIC) against Enterococcus faecalis turned out to be 50 µg/mL (≈ 132 µM); against Staphylococcus aureus, 25 µg/mL (≈ 66.2 µM); against Bacillus subtilis it was 25 µg/mL (≈ 66.2 µM); in the data set on Enterobacter cloacae it was 3.12 µg/mL (≈ 8.27 µM); against Pseudomonas aeruginosa, 6.25 µg/mL (≈ 16.5 µM); against Escherichia coli, 12.5 µg/mL (≈ 33.1 µM).
For `CC(=O)N1N=C(c2ccc(Cl)cc2)CC1c1ccc(Cl)cc1` (stereo not drawn), the MIC with Enterococcus faecalis came to 6.25 µg/mL (≈ 18.8 µM); with Staphylococcus aureus, 25 µg/mL (≈ 75 µM); with Bacillus subtilis, 12.5 µg/mL (≈ 37.5 µM); with Enterobacter cloacae, 25 µg/mL (≈ 75 µM); against Pseudomonas aeruginosa it was 6.25 µg/mL (≈ 18.8 µM); against Escherichia coli, 12.5 µg/mL (≈ 37.5 µM).
For the compound `CC(=O)N1N=C(c2ccccc2)CC1c1ccc(Cl)cc1` (stereo not drawn), the minimum inhibitory concentration (MIC) in the data set with Enterococcus faecalis was 12.5 µg/mL (≈ 41.8 µM); in the data set on Staphylococcus aureus it was 12.5 µg/mL (≈ 41.8 µM); against Bacillus subtilis, over 50 µg/mL; with Enterobacter cloacae, 25 µg/mL (≈ 83.7 µM); with Pseudomonas aeruginosa, 12.5 µg/mL (≈ 41.8 µM); in the data set on Escherichia coli it was 25 µg/mL (≈ 83.7 µM).
In the case of `CC(=O)N1N=C(c2ccc(Cl)c(Cl)c2)CC1c1ccc(Cl)cc1` (stereo not drawn), the MIC against Enterococcus faecalis is 6.25 µg/mL (≈ 17 µM); against Staphylococcus aureus, 25 µg/mL (≈ 68 µM); with Bacillus subtilis, 0.78 µg/mL (≈ 2.12 µM); in the data set with Enterobacter cloacae, over 50 µg/mL; with Pseudomonas aeruginosa it was 25 µg/mL (≈ 68 µM); in the data set on Escherichia coli, 25 µg/mL (≈ 68 µM).
On to `COc1ccc(C2=NN(C(C)=O)C(c3ccc(F)cc3)C2)cc1` (stereo not drawn), for which the MIC in the data set with Enterococcus faecalis came out at 1.56 µg/mL (≈ 5 µM); in the data set on Staphylococcus aureus, 6.25 µg/mL (≈ 20 µM); in the data set with Bacillus subtilis it was 6.25 µg/mL (≈ 20 µM); in the data set with Enterobacter cloacae, 12.5 µg/mL (≈ 40 µM); against Pseudomonas aeruginosa, 12.5 µg/mL (≈ 40 µM); in the data set on Escherichia coli, 0.39 µg/mL (≈ 1.25 µM). In addition, the LC30 in data set [1] is over 10000 µg/mL. This compound gave a concentration for half-maximal inhibition (IC50) in data set [2] of 4.2 µM.
On to `COc1ccc(C2=NN(C(C)=O)C(c3ccccc3)C2)cc1` (stereo not drawn), for which the MIC is 50 µg/mL (≈ 170 µM) with Enterococcus faecalis; over 50 µg/mL in the data set with Staphylococcus aureus; 6.25 µg/mL (≈ 21.2 µM) against Bacillus subtilis; over 50 µg/mL with Enterobacter cloacae; 12.5 µg/mL (≈ 42.5 µM) against Pseudomonas aeruginosa; 25 µg/mL (≈ 84.9 µM) in the data set with Escherichia coli. Also, the LC30 in data set [1] is over 10000 µg/mL. In addition, half-maximal inhibition in data set [2] (IC50) required 46.7 µM.
For `CC(=O)N1N=C(c2ccccc2F)CC1c1ccc(C)cc1` (stereo not drawn), the minimal inhibitory concentration (MIC) against Enterococcus faecalis was 25 µg/mL (≈ 84.4 µM); against Staphylococcus aureus, over 50 µg/mL; in the data set on Bacillus subtilis, 25 µg/mL (≈ 84.4 µM); against Enterobacter cloacae, 12.5 µg/mL (≈ 42.2 µM); against Pseudomonas aeruginosa it was over 50 µg/mL; with Escherichia coli, 25 µg/mL (≈ 84.4 µM).
As for `CC(=O)N1N=C(c2ccc(C)c(C)c2)CC1c1ccccc1Cl` (stereo not drawn), the minimal inhibitory concentration (MIC) is 50 µg/mL (≈ 153 µM) in the data set with Enterococcus faecalis; 25 µg/mL (≈ 76.5 µM) in the data set with Staphylococcus aureus; over 50 µg/mL against Bacillus subtilis; over 50 µg/mL in the data set on Enterobacter cloacae; 6.25 µg/mL (≈ 19.1 µM) in the data set on Pseudomonas aeruginosa; 25 µg/mL (≈ 76.5 µM) with Escherichia coli.

The term MIC denotes the least concentration at which growth counts as inhibited. What is called IC50 is the midpoint of a concentration-inhibition curve. The low end stands for inhibition by little substance, the high end for a need for much substance.

These data come from ChEMBL document CHEMBL1208728, “Design, synthesis, and structure-activity relationships of pyrazole derivatives as potential FabH inhibitors” (Bioorg Med Chem Lett, 2010).
